Results: patent publication US12115202B1, “Method of preventing cadmium-induced liver toxicity using a plant product derived from Achillea millefolium L” (KING FAISAL UNIVERSITY, priority 2024, dated 2024)

Experiments:
[1] = system: CdCl2-induced hepatic toxicity; test: Determination of hepatic oxidative stress markers; format: in vivo, rat; details: rats, CdCl2 vs control, AEO 250 mg/kg + CdCl2 vs CdCl2 group
Experimental: (§1) To study the hepatic protective activity of Achillea millefolium essential oil (AEO) on CdCl2-induced hepatic toxicity, male Wistar rats (weighing, 180 g-200 g) were purchased from the Experimental Animal Research Centre, King Saud University, Riyadh, KSA. The animals were randomly divided into four groups (n=8 per group). For Group I (the Control group), the animals were pre-administered with 0.9% NaCl (physiological saline), 2 hours before the injection of 0.9% NaCl (physiological saline) i.p., daily for 7 days. For Group II (the CdCl2 group), the animals were pre-administered with 0.9% NaCl (physiological saline) 2 hours before injection of 6.5 mg/kg CdCl2 i.p. daily for 7 days. For Group III (the AEO group), the animals were pre-administered with 250 mg/kg AEO 2 hours before the injection of 0.9% NaCl (physiological saline) i.p. daily for 7 days. For Group IV (the AEO+CdCl2 group), the animals were pre-administered with 250 mg/kg AEO 2 hours before the injection of 6.5 mg/kg CdCl2 i.p. daily for 7 days. Twenty-four hours after the last treatment, the animals were killed and the liver was quickly removed and weighed.
(§2) Parts of the frozen liver samples (50 mg) were homogenized in 1 ml ice-cold phosphate buffer saline containing a protease/phosphatase inhibitor cocktail. The homogenates were centrifuged at 10,000×g for 15 minutes at 4° C. and the supernatants were isolated to new tubes. The tubes were kept at −20° C. until further biochemical analysis.
Lipid peroxidation was assessed according to the amount of malondialdehyde (MDA). The activities of catalase, superoxide dismutase (SOD) glutathione peroxidase (GSH-Px) and glutathione reductase (GSH-R) were estimated using kits, according to manufacturer protocol.

Nrf2/HO-1/NQO1 = test: Hepatic Nrf2 pathway gene expression (qPCR); format: in vivo; details: rat liver, qPCR relative to β-actin, Cd vs control, AEO + CdCl2 vs CdCl2 group
Experimental: as §1, with “Twenty-four hours after the last treatment, the animals were killed and the liver was quickly removed and weighed.” left out
Gene expression for the Nrf2 pathway, including nuclear factor erythroid 2-related factor 2 (Nrf2), hemeoxygenase-1 (HO-1), NAD(P)H: quinone oxidoreductase 1 (NQO1) and Nuclear factor kappa B (NFκB) were quantified via real-time PCR (qPCR) consuming the primers' sequences, shown in Table 1, in agreement with the method described elsewhere. Briefly, RNA was isolated and purified using a Trizol reagent kit (Invitrogen, Carlsbad, CA, USA), then a reverse transcription polymerase chain reaction (RT-PCR) kit (TaKaRa, Kusatsu, Shiga, Japan) following the manufacturer's procedures. qPCR was applied using a SYBR ExScript RT-PCR kit, and quantification examinations were accomplished via an Opticon-2 Real-4 time PCR reactor (MJ Research, Capital Court, Reno, NV, USA). qPCR results were obtained using Step PE Applied Biosystems (Waltham, MA, USA) software. Relative gene expression data were calculated as mentioned earlier by the Livak and Schmittgen method (2-ΔΔCq2) and presented as a fold change. Target gene expressions were assessed and related to the reference gene (β-actin).

[2] = Changes in body weight of rats in CdCl2-induced hepatic toxicity study; format: in vivo, rat; details: male Wistar rats, n=8 per group; AEO 250 mg/kg 2 hours before saline or CdCl2 6.5 mg/kg i.p., daily for 7 days; mean ± SD
Experimental: as §1

NFκB = test: Hepatic NFκB gene expression (qPCR); format: in vivo; details: rat liver, qPCR relative to β-actin; Cd vs control; AEO with Cd vs Cd alone group; FIG. 3D
Experimental: To study the hepatic protective activity of Achillea millefolium essential oil (AEO) on CdCl2-induced hepatic toxicity, male Wistar rats (weighing, 180 g-200 g) were purchased from the Experimental Animal Research Centre, King Saud University, Riyadh, KSA. The animals were randomly divided into four groups (n=8 per group). For Group I (the Control group), the animals were pre-administered with 0.9% NaCl (physiological saline), 2 hours before the injection of 0.9% NaCl (physiological saline) i.p., daily for 7 days. For Group II (the CdCl2 group), the animals were pre-administered with 0.9% NaCl (physiological saline) 2 hours before injection of 6.5 mg/kg CdCl2 i.p. daily for 7 days. […]
Gene expression for the Nrf2 pathway, including nuclear factor erythroid 2-related factor 2 (Nrf2), hemeoxygenase-1 (HO-1), NAD(P)H: quinone oxidoreductase 1 (NQO1) and Nuclear factor kappa B (NFκB) were quantified via real-time PCR (qPCR) consuming the primers' sequences, shown in Table 1, in agreement with the method described elsewhere. […] Relative gene expression data were calculated as mentioned earlier by the Livak and Schmittgen method (2-ΔΔCq2) and presented as a fold change. Target gene expressions were assessed and related to the reference gene (β-actin).

[3] = Determination of Cd concentration in liver tissue; format: in vivo, rat
Experimental: as §1
Cd concentration was measured using conventional methods. Liver tissue was weighed and dried in an oven for 4 hours at 250° C. […] Cd concentrations were determined by spectrophotometry at […]. The Cd concentrations are expressed as μg/g of wet liver tissue.

[4] = system: CdCl2-induced hepatic toxicity; test: Determination of liver inflammatory markers; format: in vivo, rat; details: rats, CdCl2 vs control, AEO 250 mg/kg + CdCl2 vs CdCl2 group
Experimental: as §1, §2
Inflammation markers including tumor necrosis factor alpha (TNF-α), interleukin 1β (IL-1β), intracellular adhesion molecule-1 (ICAM-1) and myeloperoxidase (MPO) were measured according to the manufacturer protocol of the Kit.

[5] = system: CdCl2-induced hepatic toxicity; test: Liver function test (serum enzymes, ELISA kits); format: in vivo, rat; details: rats, Cd vs control group, AEO 250 mg/kg + CdCl2 vs CdCl2 group
Experimental: as §1
The activities of alanine transaminase (ALT), aspartate aminotransferase (AST), alkaline phosphatase (ALP), lactate dehydrogenase (LDH) enzymes and γ-glutamyltransferase1 (γGTT1) were determined using ELISA kits.

In the case of `[Cl][Cd][Cl]` [CdCl2], the “hepatic MDA level (lipid peroxidation)” value ([1]; FIG. 2A) is reported as “augmented”, the “hepatic GSH-Px activity” value ([1]; FIG. 2B) is reported as “considerably declined” and the “hepatic GSH-R activity” value ([1]; FIG. 2C) is reported as “considerably declined”. For the same compound, the “hepatic SOD activity” value ([1]; FIG. 2D) was “considerably declined”, the “hepatic CAT (catalase) activity” value ([1]; FIG. 2E) was “considerably declined” and the “Nrf2 mRNA expression level” value (Nrf2/HO-1/NQO1; FIG. 3A) was “decreased”. The “HO-1 mRNA expression level” value (Nrf2/HO-1/NQO1; FIG. 3B) was “decreased”, the “NQO1 mRNA expression level” value (Nrf2/HO-1/NQO1; FIG. 3C) was “decreased” and the Final weight [2] was 190.84 ± 4.41. For the same compound, the “NFκB mRNA expression level” value (NFκB) was “significantly augmented”, the “Cd concentration (μg/g liver tissue)” value ([3]; male Wistar rats, AEO 250 mg/kg 2 hours before saline or CdCl2 6.5 mg/kg i.p., daily for 7 days, liver 24 h after last treatment, mean ± SD) was 0.74 ± 0.023 μg/g liver tissue and the “Concentration of Cd in hepatic tissue (change)” value ([3]; rats, CdCl2 vs control group, AEO prior to CdCl2 vs CdCl2 group, p<0.05) was “significantly increased”. For the same compound, the TNF-α hepatic level ([4]; FIG. 4A) was “augmented”, the IL-1β hepatic level ([4]; FIG. 4B) was “augmented” and the MPO hepatic level ([4]; FIG. 4C) was “augmented”. For the same compound, the ICAM-1 hepatic level ([4]; FIG. 4D) was “augmented”, the “serum ALT level” value ([5]; FIG. 1A) was “increase” and the “serum AST level” value ([5]; FIG. 1B) was “increase”. For the same compound, the “serum ALP level” value ([5]; FIG. 1C) was “increase”, the “serum LDH level” value ([5]; FIG. 1D) was “increase” and the “serum γGTT1 level” value ([5]; FIG. 1E) was “increase”.
